≈ marks a conversion by molar mass, not a printed value. Where “and” joins values, the source holds several entries; their conditions need not be identical. Equal values may be shown once. Read-outs that look alike come from different tables or passages of the source.
Key:
[1] = target: T1, Co(II)-substituted E. coli PDF (Escherichia coli, UniProt P0A6K3); test: PDF assay coupled to formate dehydrogenase; format: biochemical
T1 construct: made in house

E. coli = test: Antibacterial activity (cell growth, MIC); format: cell-based; conditions: Escherichia coli
Description: (§1) FIG. 5 Inhibition of B. subtilis (A) and E. coli (B) cell growth by inhibitor 2. An overnight culture was diluted 1000-fold into 2 mL of fresh LB medium containing the specified concentrations of inhibitor 2 and incubated at 37° C. Cell densities were measured at the specified times on a UV-vis spectrophotometer.
(§2) The in vitro antibacterial activity of the cyclic inhibitor was tested against E. coli and Bacillus subtilis, the representative Gram-negative and Gram-positive bacteria, respectively.
(§3) Antimicrobial Susceptibility Testing. For Escherichia coli and Bacillus subtilis, cell growth was monitored on the Lambda-20 UV/Vis spectrophotometer at 600 nm. A single bacterial colony from a plate culture was grown overnight in LB media and was diluted 1000-fold into 2 mL of fresh growth medium containing 0-64 μg/mL of test agent in a 5-mL glass test tube shaken at a speed of 250 rpm. Cell growth (at 37° C.) was monitored for 0-600 min.
(§4) Antibacterial Activity of PDF Inhibitors Inhibitors 2-7E were tested against two or more bacterial strains for antibacterial activities.

B. subtilis = test: Antibacterial activity (cell growth, MIC); format: cell-based; conditions: Bacillus subtilis
Description: as §1, §2, §3, §4

MMP-9 = MMP-9 (Homo sapiens, UniProt P14780); test: Inhibition of human matrix metalloproteases; format: biochemical; conditions: read-out: percentage of MMP-9 activity remaining; for remaining activity at 1 µM: inhibitor 1.0 μM; for remaining activity at 10 µM: inhibitor 10 μM
Sequence of MMP-9 (P14780 94-707): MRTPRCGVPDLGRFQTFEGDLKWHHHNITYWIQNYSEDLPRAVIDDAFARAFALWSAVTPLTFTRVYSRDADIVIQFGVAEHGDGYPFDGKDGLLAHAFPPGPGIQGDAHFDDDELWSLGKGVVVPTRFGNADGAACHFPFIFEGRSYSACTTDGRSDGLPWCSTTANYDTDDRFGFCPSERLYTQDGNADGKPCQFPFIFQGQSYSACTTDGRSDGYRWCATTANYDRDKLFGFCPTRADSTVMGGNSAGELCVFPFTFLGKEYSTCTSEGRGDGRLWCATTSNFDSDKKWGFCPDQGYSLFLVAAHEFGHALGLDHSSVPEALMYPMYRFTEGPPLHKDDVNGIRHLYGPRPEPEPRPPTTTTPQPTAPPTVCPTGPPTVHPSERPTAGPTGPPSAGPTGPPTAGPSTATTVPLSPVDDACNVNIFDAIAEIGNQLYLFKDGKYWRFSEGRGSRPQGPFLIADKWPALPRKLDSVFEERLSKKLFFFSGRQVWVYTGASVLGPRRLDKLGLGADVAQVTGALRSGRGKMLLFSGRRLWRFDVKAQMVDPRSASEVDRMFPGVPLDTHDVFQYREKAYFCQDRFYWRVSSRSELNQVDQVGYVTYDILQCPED
Description: (§5) Inhibition of Metalloproteases (MMP) Several of the inhibitors were tested for inhibition of human matrix metalloproteases, which are often used as indicators of inhibitor selectivity (no inhibition of MMP is desired). Each inhibitor was tested at two different concentrations (1.0 and 10 μM). The values reported are the percentage of MMP activity remaining in the presence of added inhibitor.

MMP2 = target: T2, MMP2 (Homo sapiens, UniProt P08253); test: Inhibition of human matrix metalloproteases; format: biochemical; conditions: read-out: percentage of MMP2 activity remaining; for remaining activity at 1 µM: inhibitor 1.0 μM; for remaining activity at 10 µM: inhibitor 10 μM
T2 sequence (P08253 110-660): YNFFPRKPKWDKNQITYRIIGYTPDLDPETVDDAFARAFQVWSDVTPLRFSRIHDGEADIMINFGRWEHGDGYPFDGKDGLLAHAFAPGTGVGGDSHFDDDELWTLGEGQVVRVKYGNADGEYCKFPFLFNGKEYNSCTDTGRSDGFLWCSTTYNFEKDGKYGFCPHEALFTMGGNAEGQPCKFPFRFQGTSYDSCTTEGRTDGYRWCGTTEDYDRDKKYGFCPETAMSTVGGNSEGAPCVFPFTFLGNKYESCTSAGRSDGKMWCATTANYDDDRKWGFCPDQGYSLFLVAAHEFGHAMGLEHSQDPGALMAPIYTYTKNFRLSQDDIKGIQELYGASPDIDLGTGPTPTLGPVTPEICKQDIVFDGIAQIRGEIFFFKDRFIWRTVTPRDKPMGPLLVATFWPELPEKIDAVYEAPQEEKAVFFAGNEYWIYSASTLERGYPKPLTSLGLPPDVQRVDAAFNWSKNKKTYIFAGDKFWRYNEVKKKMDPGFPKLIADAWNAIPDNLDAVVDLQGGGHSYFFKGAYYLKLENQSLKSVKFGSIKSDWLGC
Description: as §5

MMP-1 = target: T3, MMP-1 (Homo sapiens, UniProt P03956); test: Inhibition of human matrix metalloproteases; format: biochemical; conditions: read-out: percentage of MMP-1 activity remaining; for remaining activity at 1 µM: inhibitor 1.0 μM; for remaining activity at 10 µM: inhibitor 10 μM
T3 sequence (P03956 100-469): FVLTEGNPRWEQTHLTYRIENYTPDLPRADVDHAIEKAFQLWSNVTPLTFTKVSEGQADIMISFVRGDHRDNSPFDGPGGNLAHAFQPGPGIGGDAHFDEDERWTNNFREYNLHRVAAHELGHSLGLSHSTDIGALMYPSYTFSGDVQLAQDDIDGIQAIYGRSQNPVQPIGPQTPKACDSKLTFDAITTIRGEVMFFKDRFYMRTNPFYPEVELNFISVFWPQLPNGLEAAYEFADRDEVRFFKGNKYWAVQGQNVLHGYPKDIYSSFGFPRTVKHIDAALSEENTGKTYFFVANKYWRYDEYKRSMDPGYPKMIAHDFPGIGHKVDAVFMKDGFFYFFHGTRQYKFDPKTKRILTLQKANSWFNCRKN
Description: as §5

MMP-3 = MMP-3 (Homo sapiens, UniProt P08254); test: Inhibition of human matrix metalloproteases; format: biochemical; conditions: read-out: percentage of MMP-3 activity remaining; for remaining activity at 1 µM: inhibitor 1.0 μM; for remaining activity at 10 µM: inhibitor 10 μM
Sequence of MMP-3 (P08254 100-477): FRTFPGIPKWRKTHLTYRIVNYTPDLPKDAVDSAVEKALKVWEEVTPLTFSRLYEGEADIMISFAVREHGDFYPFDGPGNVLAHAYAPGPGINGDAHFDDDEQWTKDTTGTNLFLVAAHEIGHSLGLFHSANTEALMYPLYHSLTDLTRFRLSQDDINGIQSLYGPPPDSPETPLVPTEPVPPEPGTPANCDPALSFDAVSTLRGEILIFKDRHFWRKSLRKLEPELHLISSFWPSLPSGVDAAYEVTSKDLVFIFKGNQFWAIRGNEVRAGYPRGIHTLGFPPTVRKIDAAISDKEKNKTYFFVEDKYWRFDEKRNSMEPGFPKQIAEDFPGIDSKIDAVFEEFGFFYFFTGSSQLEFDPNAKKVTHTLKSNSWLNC
Description: as §5

[2] = tested on: H. influenzae (ATCC 31517); test: Antibacterial activity (MIC); format: cell-based; conditions: Haemophilus influenzae, ATCC31517
Description: as §4

S. aureus (ATCC 29213) = test: Antibacterial activity (MIC); format: cell-based; conditions: Staphylococcus aureus, ATCC29213
Description: as §4

[3] = tested on: S. pneumoniae (ATCC 49619); test: Antibacterial activity (MIC); format: cell-based; conditions: Streptococcus pneumoniae, ATCC49619
Description: as §4

[4] = tested on: S. pneumoniae (ATCC 6303); test: Antibacterial activity (MIC); format: cell-based; conditions: Streptococcus pneumoniae, ATCC6303
Description: as §4

[5] = tested on: M. catarrhalis (ATCC 37054); test: Antibacterial activity (MIC); format: cell-based; conditions: Moraxella catarrhalis, ATCC37054
Description: as §4

[6] = tested on: S. pneumoniae (ATCC 6301); test: Antibacterial activity (MIC); format: cell-based; conditions: Streptococcus pneumoniae, ATCC6301
Description: as §4

E. faecalis (ATCC 29212) = test: Antibacterial activity (MIC); format: cell-based; conditions: Enterococcus faecalis, ATCC29212
Description: as §4

E. coli PDF = target: T4, E. coli PDF (Escherichia coli, UniProt P0A6K3); test: Aminopeptidase assay of PDF inhibition; format: biochemical
T4 construct: made in house
T4 sequence (P0A6K3 whole entry): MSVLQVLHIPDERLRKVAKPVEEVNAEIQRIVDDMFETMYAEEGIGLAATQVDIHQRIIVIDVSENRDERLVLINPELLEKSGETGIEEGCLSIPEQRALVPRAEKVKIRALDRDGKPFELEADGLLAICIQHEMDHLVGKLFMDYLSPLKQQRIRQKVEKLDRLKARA
Description: Aminopeptidase Assay of Compound 2 The inhibition constant was also determined independently using and aminopeptidase assay.^37 Assay reactions (total volume of 500 μL) containing 50 mM Hepes (pH 7.0), 150 mM NaCl, 8.0 nM E. coli PDF, and 0-50 nM inhibitor 2 were incubated on ice for 2 h. Prior to reaction initiation, the mixture was brought to room temperature for 10 min. The PDF reaction was then initiated by the addition of substrate formyl-Met-Leu-p-nitronilide (final concentration 110 μM) and allowed to proceed for 3 min at room temperature before being quenched by heating at 95° C. for 10 min (the inactivation process is usually complete within the first 30 s). After cooling to room temperature, 1.0 unit of Aeromonas aminopeptidase (AAP) was added to the solution and the mixture was incubated for 15 min at room temperature. The absorbance at 405 nm was measured on a UV-Vis spectrophotometer. […] For all end-point assay reactions, the substrate to product conversion was kept at <20%.

[7] = tested on: human matrix metalloproteases; test: Inhibition of human matrix metalloproteases, overall statement; format: biochemical; conditions: MMP-1, MMP2, MMP-3, MMP-9; 1.0 and 10 μM
Description: as §5, with “inhibitor. […] The acyclic inhibitors are flexible and can adopt different conformations to fit the active sites of both PDF and MMP's.” for “inhibitor.”

[8] = Stability of inhibitors in rat plasma; format: in vitro ADME; conditions: 37° C., LC-MS
Description: FIG. 7 Comparison of the in vitro stability of PDF inhibitors 6 (cyclic) and 9 (acyclic) in rat plasma.
Stability of Inhibitors Inhibitors 6E and comparative compound 9 were chosen to test for the effect of cyclization on inhibitor stability. They both have an L-lysine as the P2′ residue and are expected to be sensitive to proteolytic degradation by trypsin-like enzymes. Both inhibitors were incubated in rat plasma at 37° C. and aliquots were withdrawn at various times and analyzed by LC-MS. […] Our attempts to identify the degradation products by mass spectrometry failed.

[9] = formate dehydrogenase-coupled assay, 4 nM E. coli PDF, pH 7.0, read-out: K1 (apparent inhibition constant)

T1 sequence (P0A6K3 whole entry): as above

SMILES | Ki [1] | MIC (E. coli) | MIC (B. subtilis; read-out: MIC) | remaining activity at 1 µM (MMP-9) | remaining activity at 10 µM (MMP-9) | remaining activity at 1 µM (MMP2) | remaining activity at 10 µM (MMP2) | remaining activity at 1 µM (MMP-1) | remaining activity at 10 µM (MMP-1) | remaining activity at 1 µM (MMP-3) | remaining activity at 10 µM (MMP-3) | also measured
CC(C)(C)[C@@H]1NC(=O)[C@@H](CN(O)C=O)CCCCCCCCCCCNC1=O [Compound 4E] | 0.22 nM | > 24 µg/mL | ~0.2 µg/mL | – | – | – | – | – | – | – | – | –
CC(C)(C)C1NC(=O)C(CN(O)C=O)CCCCCCCCCNC1=O (centres unmarked) [Compound 2, N-(3-tert-Butyl-2,5-dioxo-1,4-diaza-cyclopentadec-6-ylmethyl)-N-hydroxy-formamide] | 0.67 ± 0.2 nM | ~32 µM and ~12 µg/mL | 0.7 to 1.4 µg/mL | 95% | 91% | 96% | 92% | 93% | 86% | 97% | 91% | fold more potent against PDF than the acyclic parent/counterpart ([1]; cyclic versus acyclic inhibitor): ~10 fold; MIC (B. subtilis; read-out: minimal inhibitory concentration (MIC)): 2 to 4 µM; MIC [2]: 0.5 µg/mL (≈ 1.35 µM); MIC (S. aureus (ATCC 29213)): 16 µg/mL (≈ 43.3 µM); MIC [3]: 4 µg/mL (≈ 10.8 µM); MIC [4]: 2 µg/mL (≈ 5.41 µM); MIC [5]: 0.62 µg/mL (≈ 1.68 µM); MIC [6]: 4 µg/mL (≈ 10.8 µM); MIC (E. faecalis (ATCC 29212)): > 32 µg/mL; Ki (E. coli PDF): 0.33 ± 0.15 nM
NCCCC[C@@H]1NC(=O)[C@@H](CN(O)C=O)CCCCCCCCCCCCCCNC1=O [Compound 7E] | 36 ± 9 nM | > 32 µg/mL | > 32 µg/mL | 96% | 95% | 94% | 85% | 99% | 93% | 100% | 94% | MIC [2]: 32 µg/mL (≈ 70.4 µM); MIC (S. aureus (ATCC 29213)): 32 µg/mL (≈ 70.4 µM); MIC [3]: > 32 µg/mL; MIC [4]: > 32 µg/mL; MIC [5]: 1 µg/mL (≈ 2.2 µM); MIC [6]: > 32 µg/mL; MIC (E. faecalis (ATCC 29212)): 32 µg/mL (≈ 70.4 µM)
CCCC[C@H](CN(O)C=O)C(=O)N[C@H](C(=O)N(C)C)C(C)(C)C [BB-3497, reference compound] | – | – | – | – | – | – | – | – | – | – | – | Ki [1, 9]: ~7 nM
CC(C)(C)[C@@H]1NC(=O)[C@@H](CN(O)C=O)CCCCCCCCCCCCCCNC1=O [Compound 5E] | 25 ± 6 nM | > 24 µg/mL | ~16 µg/mL | 96% | 94% | 100% | 100% | 93% | 92% | 97% | 96% | MIC [2]: > 32 µg/mL; MIC (S. aureus (ATCC 29213)): > 32 µg/mL; MIC [3]: 8 µg/mL (≈ 18.2 µM); MIC [4]: 4 µg/mL (≈ 9.1 µM); MIC [5]: < 0.031 µg/mL; MIC [6]: 8 µg/mL (≈ 18.2 µM); MIC (E. faecalis (ATCC 29212)): > 32 µg/mL
CC(=O)NCCCC[C@@H]1NC(=O)[C@@H](CN(O)C=O)CCCCCCCCCNC1=O [Compound 8E] | 12 ± 4 nM | – | – | 92% | 92% | 83% | 80% | 97% | 87% | 100% | 92% | –
CC(C)(C)[C@@H]1NC(=O)[C@@H](CN(O)C=O)CCCCCCCNC1=O [Compound 1E] | – | – | – | 92% | 89% | 90% | 85% | 100% | 99% | 97% | 80% | Ki [1, 9]: 14 ± 3 nM
CCCC[C@H](CN(O)C=O)C(=O)N[C@@H](CCCCN)C(=O)Nc1ccccc1 [Compound 10C, reference compound] | 18 ± 1 nM | – | – | 46% | 11% | 66% | 45% | 50% | 3% | 32% | 27% | inhibition of the MMPs (in words) [7]: substantial inhibition of all of the MMP's
NCCCC[C@@H]1NC(=O)[C@@H](CN(O)C=O)CCCCCCCCCNC1=O [Compound 6E] | 3 ± 1.3 nM | 4 to 8 µg/mL (≈ 10.4 to 20.8 µM) | ~8 µg/mL | – | – | – | – | – | – | – | – | degradation (loss) in rat plasma after 5 h [8]: no detectable degradation
CC(C)(C)[C@@H]1NC(=O)[C@@H](CN(O)C=O)CCCCCCCCCCNC1=O [Compound 3E] | – | – | – | – | – | – | – | – | – | – | – | Ki [1, 9]: 0.4 nM
CCCCCCNC(=O)[C@H](CCCCN)NC(=O)[C@H](CCCCC)CN(O)C=O [Compound 9C, reference compound] | – | – | – | 39% | 6% | 27% | 2% | 50% | 0% | 19% | 1% | inhibition of the MMPs (in words) [7]: substantial inhibition of all of the MMP's; degradation (loss) in rat plasma after 5 h [8]: approximately 25%

— patent publication US7538085B2, “Peptide deformylase inhibitors as novel antibiotics” (The Ohio State University Research Foundation, priority 2003, dated 2009)
